# Test results from patent publication US20230338340A1, “Methods of Treating Cystic Fibrosis” (The Trustees of Dartmouth College, priority 2020, published 2023).
# Target: T1, Human-Dab2-DH (Homo sapiens, UniProt P98082)
# T1 construct: fused on or other part: N-terminal 10xHis tag with a 3C protease site, cleaved off unless otherwise indicated
# T1 sequence (P98082 33-178 limits assumed): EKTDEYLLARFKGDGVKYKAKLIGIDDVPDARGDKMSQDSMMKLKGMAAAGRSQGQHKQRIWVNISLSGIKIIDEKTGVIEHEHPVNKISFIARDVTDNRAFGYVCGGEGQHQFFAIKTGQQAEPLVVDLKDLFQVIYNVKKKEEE
# Assay: Dab2 FP competition assay via HTS
# Type: binding
# Conditions: not given
# Experimental: CALP and/or Dab2 inhibition assays were performed in biochemical “mix-and-measure” format in order to evaluate the effects on activation and inhibition of CALP and/or Dab2 by the compounds of the disclosure. Brief assay procedure is provided below. Unless otherwise specified, all of the compounds were obtained from commercial sources.
# Dab-2 inhibitors were also identified by FP competition assays via HTS. Human-Dab2-DH, residues 31-191 (Uniprot: P98082), and trDab2-DH (residues 33-178) was subcloned into the pET16b vector via PCR utilizing the restriction enzyme sites of Xhol and BamHI. The construct was designed with a 3C protease cleavage site directly upstream and in-frame with the protein coding sequence. DNA was sequence verified. (0.1 mM) IPTG was used to induce protein expression in E. coli BL21(DE3)RIL cells, after reaching an O.D. of […]. […] Followed by 3C cleavage of the 10×His tag (unless otherwise indicated), and a second nickel affinity column to remove the 3C protease and excess tag. Dab2-DH was dialyzed into FP storage buffer (25 mM Tris pH 8.0, 150 mM NaCl, 0.1 mM TCEP, and 0.02% sodium azide). Fluorescent reporter peptides, TIVR*STA02 (TMR*-[…]) and TMR*STA03 (TMR*-[…]), were purchased commercially with the following sequence where TMR* denotes a N-terminal tetramethylrhodamine group coupled via an aminohexanoic acid linker. An unlabled positive control peptide STA02 ([…]) was also purchased commercially. Inhibitors of Dab2-DH were identified from a variety of sources with various protocols outlined below.
# For screens conducted at the Novartis Institutes for BioMedical Research FAST Lab, single-dose HTS assays were performed with libraries comprising ˜52,000 compounds at 20 μM doses. Experiments were conducted as described for screens at the University of Pittsburgh Lab and Drug Discovery Institute, except that Dab2-DH, not trDab2-DH, was used as the protein source.
# For screens conducted at the Broad Institute, compound transfers were done using a 384-well pin tool equipped with 100 nL hydrophobic surface coated pins. 100 nL of DMSO (negative control), STA02 (positive control), or library compounds were dispensed into 20 μL of protein (200 nM) and reporter (F*-STA02, 30 nM) mixture with 0.1 mg/ml mouse IgG and 0.5 mM Thesit. Final concentrations in the mixture were DMSO ([…]), STA02 (20 μM), and compounds (18 μM). Plates were incubated for 35-45 minutes before measuring polarization. Compounds were tested in duplicates on two separate plates. Positive and negative controls were included in each individual plate.
# For experiments conducted at the University of Pittsburgh Lab and Drug Discovery Institute, single-dose HTS assays were performed with a library containing ˜220,000 compounds. On the day of screening, a master mix of equal parts trDab2-DH (900 nM) and TMP-STA03 (90 nM) was prepared. Compound plates containing assay ready 2 μL aliquots of a 1 mM stock solution in DMSO were thawed, reconstituted in FP buffer to a concentration of 30 μM in 3% DMSO, and five μL transferred to low volume assay plates using a Perkin Elmer MDT. Ten μL of master mix were added by a Microflo bulk liquid dispenser (Biotek, Winooski, VT) and processed as described in the general protocol above. Each plate contained 32 wells of positive (Dab2-DH+probe+DMSO) and negative (Dab2-DH+probe +10 μM STA03) controls. Plates were read at 1.5-h and 4-h on the Envision multilabel reader.
row,Structure (SMILES),IC50
1,"COc1c(O)c2c(=O)cc(OC)c3c4c(OC)cc(=O)c5c(O)c(OC)c(CC(C)OC(=O)c6ccccc6)c(c(c1CC(C)OC(=O)Oc1ccc(O)cc1)c23)c54 (stereo not drawn) [Example 20, 1-(3,10-dihydroxy-12-(2-(((4-hydroxyphenoxy)carbonyl)oxy)propyl)-2,6,7,11-tetramethoxy-4,9-dioxo-4,9-dihydroperylen-1-yl)propan-2-yl benzoate]",0.51 µM
2,"CN(C)[C@@H]1C(=O)C(C(N)=O)=C(O)[C@@]2(O)C(=O)C3=C(O)c4c(O)cccc4[C@@](C)(O)[C@H]3[C@H](O)[C@@H]12 [Example 30, (4S,4aR,5S,5aR,6S,12aR)-4-(dimethylamino)-1,5,6,10,11,12a-hexahydroxy-6-methyl-3,12-dioxo-3,4,4a,5,5a,6,12,12a-octahydrotetracene-2-carboxamide]",6.02 µM

# Same assay, conditions: at Cmax; cells printed with %
row,Structure (SMILES),Inhibitory activity Dab2 at Cmax
1,"CC1(C)Cc2ccccc2-c2n[nH]c(=S)n21 [Example 13, 5,5-dimethyl-5,6-dihydro-[1,2,4]triazolo[3,4-a]isoquinoline-3(2H)-thione]",~−95%

# Same assay, conditions: read-out: Inhibitory activity Dab2 IC50
row,Structure (SMILES),IC50
1,"Cc1cc(O)c(Oc2cc(C)cc(O)c2O)c(O)c1 [Example 23, 3-(2,6-dihydroxy-4-methylphenoxy)-5-methylbenzene-1,2-diol]",0.89 µM
2,"COC1=CC(=O)C(O)=C/C1=C\C=C\c1ccccc1 [Example 19, (E)-2-hydroxy-5-methoxy-4-((E)-3-phenylallylidene)cyclohexa-2,5-dien-1-one]",7.73 µM
3,"Cc1cc(O)c(O)c(Oc2cc(C)cc(O)c2O)c1 [Example 22, 6,6′-oxybis(4-methylbenzene-1,2-diol)]",0.77 µM
4,"CC(C)c1cc2c(c(O)c1O)C13CCCC(C)(C)C1CC2OC3=O (stereo not drawn) [Example 16, 5,6-dihydroxy-7-isopropyl-1,1-dimethyl-1,3,4,9,10,10a-hexahydro-2H-9,4a-(epoxymethano)phenanthren-12-one]",6.89 µM
5,"O=C1C=C(O)c2c(O)cc(O)cc2C1=O [Example 17, 4,5,7-trihydroxynaphthalene-1,2-dione]",8.29 µM
6,"O=C(/C=C/c1ccc(O)c(O)c1)OC(Cc1ccc(O)c(O)c1)C(=O)O (stereo not drawn) [Example 25, (E)-3-(3,4-dihydroxyphenyl)-2-((3-(3,4-dihydroxyphenyl)acryloyl)oxy)propanoic acid]",3.22 µM
7,"CC(=O)C1=C(O)[C@@]2(O)C(=O)c3c(c(C)c4ccc(C)c(O)c4c3O)C[C@H]2[C@@H](N)C1=O [Example 18, (1R,4aR,12aS)-3-acetyl-1-amino-4,4a,6,7-tetrahydroxy-8,11-dimethyl-12,12a-dihydrotetracene-2,5(1H,4aH)-dione]",8.86 µM
8,"CC1=C(O)C(=O)C=C2C1=CC=C1[C@@]2(C)CC[C@@]2(C)[C@@H]3C[C@](C)(C(=O)O)CC[C@]3(C)CC[C@]12C [Example 24, (2R,4aS,6aS,12bR,14aS,14bR)-10-hydroxy-2,4a,6a,9,12b,14a-hexamethyl-11-oxo-1,2,3,4,4a,5,6,6a,11,12b,13,14,14a,14b-tetradecahydropicene-2-carboxylic acid]",0.66 µM
9,"COc1ccc(C(=O)C(=O)Nc2ccccc2)c(O)c1 [Example 21, 2-(2-hydroxy-4-methoxyphenyl)-2-oxo-N-phenylacetamide]",0.94 µM

# Further lines, results first:
row,IC50,Structure (SMILES)
1,0.69 µM,"Cc1occ2c1C(=O)c1c(O)ccc(O)c1C2 [Example 26, 5,8-dihydroxy-3-methylnaphtho[2,3-c]furan-4(9H)-one]"
2,3.85 µM,"CC1CCCCCCCCCC(OC(=O)CCC(=O)O)C(=O)/C=C/C(=O)O1 (stereo not drawn) [Example 27, (E)-4-((16-methyl-2,5-dioxooxacyclohexadec-3-en-6-yl)oxy)-4-oxobutanoic acid]"
3,0.39 µM,"COC(=O)C1=COC(OC2OC(CO)C(O)C(O)C2O)C2C(CO)=CCC12O (stereo not drawn) [Example 28, methyl 4a-hydroxy-7-(hydroxymethyl)-1-((3,4,5-trihydroxy-6-(hydroxymethyl)tetrahydro-2H-pyran-2-yl)oxy)-1,4a,5,7a-tetrahydrocyclopenta[c]pyran-4-carboxylate]"
4,8.02 µM,"CC1OC2CC(=O)OC2C2=C1C(=O)c1c(O)cccc1C2=O (stereo not drawn) [Example 33, 7-hydroxy-5-methyl-3,3a,5,11b-tetrahydro-2H-benzo[g]furo[3,2-c]isochromene-2,6,11-trione]"
5,2.99 µM,"O=C1c2c(O)c(Cl)cc3c2[C@@]2(Oc4ccc(O)c5c4[C@]3(O2)[C@@H]2O[C@@H]2C5=O)[C@@H]2O[C@H]12 [Example 34, (1aR,1bS,5aS,6aR,6bS,11aS)-3-chloro-4,10-dihydroxy-1a,5a,6a,11a-tetrahydro-5H,11H-1b,6b-epoxyoxireno[2′,3′:2,3]naphtho[1,8-bc]oxireno[2′,3′:2,3]naphtho[1,8-ef]oxepine-5,11-dione]"
6,9.41 µM,"CC[N+](C)(CC)CCC[n+]1c(-c2ccccc2)c2cc(N)ccc2c2ccc(N)cc21 [Example 29, 3,8-diamino-5-(3-(diethyl(methyl)ammonio)propyl)-6-phenylphenanthridin-5-ium bromide]"
7,5.37 µM,"CC(C)c1cc2c(c(O)c1O)[C@@]13CCCC(C)(C)[C@@H]1C[C@@H]2OC3=O [Example 31, (4aR,9S,10aS)-5,6-dihydroxy-7-isopropyl-1,1-dimethyl-1,3,4,9,10,10a-hexahydro-2H-9,4a-(epoxymethano)phenanthren-12-one]"
8,1.17 µM,"COc1c(O)cc(C(C)C(C)=O)c(O)c1OC (stereo not drawn) [Example 35, 3-(2,5-dihydroxy-3,4-dimethoxyphenyl)butan-2-one]"
9,5.22 µM,"C=C1C(=O)OC2C(=O)OC(CCCCCCCCCC)C12 (stereo not drawn) [Example 32, 4-decyl-3-methylenedihydrofuro[3,4-b]furan-2,6(3H,4H)-dione]"
